Laboratory results reported in publication PMC8591604, “Targeting Oncogenic Src Homology 2 Domain-Containing Phosphatase 2 (SHP2) by Inhibiting Its Protein–Protein Interactions” (Journal of Medicinal Chemistry, 2021).
Read-outs that look alike come from different tables or passages of the source. Values belong to the compound of their own block, whether it stands above or below them. Where a SMILES comes first, the peptide text is derived from it. [ ]: non-standard residue; d: D form. The star is where a group is joined. 5FAM = O=C1OC2(c3ccc(O)cc3Oc3cc(O)ccc32)c2ccc(C(=O)*)cc21; pY = N[C@@H](Cc1ccc(OP(=O)(O)O)cc1)C(=O)O

What was measured:
[1] = Peptide stability in DMEM; assay type: in vitro ADME; settings: 3 days; data not shown
Description: (§1) The peptides were dissolved in DMSO (5 mg/mL). In Eppendorf tubes, 1 mL of HEPES buffer (25 mM, pH 7.6) was temperature equilibrated at 37 °C before the addition of 250 μL of human serum and 20 μL of a peptide solution; the reaction was followed for 24 h. At fixed intervals, 100 μL of the solution was withdrawn and added to 200 μL of absolute ethanol. These samples were kept on ice for 15 min and then centrifuged at 13000 rpm for 5 min; the supernatant solutions were analyzed by HPLC and HPLC-MS with a 20% to 60% B gradient in 20 min to follow the reaction. In parallel, samples containing peptide, buffer, and ethanol only were analyzed. A degradation resistance test was also conducted in DMEM (Dulbecco’s modified Eagle’s medium). The experimental conditions are similar to those described above; the reaction was followed for 72 h. The enzymatic degradation resistance tests were followed by HPLC using a 5% to 50% B gradient over 20 min.

SHP2Δ104 = target: T1, SHP2Δ104 (Homo sapiens, UniProt Q06124); test: Dephosphorylation of phosphopeptides, malachite green phosphatase assay; assay type: biochemical; settings: 100 μM phosphopeptide
T1 construct: the isolated PTP domain preceded by the C-SH2 domain (residues 105–528); made in house; host or cells: Escherichia coli (DE3) Rosetta2
T1 sequence (Q06124 105-528): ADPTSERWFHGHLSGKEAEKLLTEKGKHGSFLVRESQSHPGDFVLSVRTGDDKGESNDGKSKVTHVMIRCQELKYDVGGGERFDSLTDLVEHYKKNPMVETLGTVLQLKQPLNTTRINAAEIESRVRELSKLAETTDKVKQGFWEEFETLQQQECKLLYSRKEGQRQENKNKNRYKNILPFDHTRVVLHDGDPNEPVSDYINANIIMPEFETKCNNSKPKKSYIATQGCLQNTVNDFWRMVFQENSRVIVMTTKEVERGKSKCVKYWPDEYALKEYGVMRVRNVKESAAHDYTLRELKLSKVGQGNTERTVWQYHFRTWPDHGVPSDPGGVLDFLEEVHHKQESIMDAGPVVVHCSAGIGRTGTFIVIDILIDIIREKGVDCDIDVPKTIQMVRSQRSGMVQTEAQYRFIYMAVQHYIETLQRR
Description: The ability of SHP2 to dephosphorylate the phosphopeptides was evaluated through a malachite green phosphatase assay (PTP assay kit 1, Millipore). The BTAM peptide and the following monophosphorylated peptides derived from known SHP2 substrates were used for comparison: DKQVE-pY-LDLDL (GAB1Y657), EEENI-pY-SVPHD (p190A/RhoGAPY1105), and VDADE-pY-LIPQQ (EGFRY1016) (Primm). SHP2Δ104 (2.4 pmol) was incubated with each phosphopeptide at 100 μM (total volume of 25 μL) for different times. The reaction was stopped by adding 100 μL of a malachite green solution. After 15 min, the absorbance was read at 655 nm, using a microplate reader, and compared with a phosphate standard curve to determine the release of phosphate. Data obtained in the linear region of the curve were normalized to the reaction time (1 min). Each experiment was performed in duplicate.

[2] = Peptide stability in human serum (HPLC); assay type: in vitro ADME; settings: in 3 h, positive control
Description: as §1

N-SH2 domain of SHP2 [3] = target: T2, N-SH2 domain of SHP2 (Homo sapiens, UniProt Q06124); test: Fluorescence anisotropy direct binding assay; settings: for standard free energy of binding: assuming a 1 M standard state; for Kd: direct titration of labeled peptide
T2 construct: constructs of the N-SH2 (residues 2–111), C-SH2 (residues 109–217), and PTP (residues 212–528) domains; made in house; host or cells: Escherichia coli (DE3) Rosetta2
T2 sequence (Q06124 2-111): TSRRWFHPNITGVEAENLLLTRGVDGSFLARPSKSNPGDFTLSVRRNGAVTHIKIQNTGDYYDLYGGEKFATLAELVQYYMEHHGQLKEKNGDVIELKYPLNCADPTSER

N-SH2 domain [4] = target: N-SH2 domain; design: method as in ref 48 (a number printed in a supplementary file, which may have a reference list of its own: not looked up in the article's list); settings: Radioactively labeled peptide; cited from earlier work
N-SH2 domain [5] = target: N-SH2 domain; design: method as in ref 19 (a number printed in a supplementary file, which may have a reference list of its own: not looked up in the article's list); settings: Isothermal titration calorimetry; cited from earlier work
N-SH2 domain of SHP2 [6] = target: T2, N-SH2 domain of SHP2; test: Fluorescence anisotropy displacement assay; assay type: binding; settings: 1.0 nM CF-P9, 40 nM N-SH2; compared with P9

Compound: CC[C@H](C)[C@H](NC(=O)[C@H](Cc1ccc(C(F)(F)P(=O)(O)O)cc1)NC(=O)[C@H](CC(N)=O)NC(=O)[C@H](CC(C)C)NC(=O)CNC(C)=O)C(=O)N[C@@H](CC(=O)O)C(=O)N[C@@H](CC(C)C)C(=O)N[C@@H](CC(=O)O)C(=O)N[C@@H](Cc1c[nH]c2ccccc12)C(N)=O [OP, GLN- F2Pmp-IDLDW]
stability in DMEM [1]: stable

Compound: CC[C@H](C)[C@H](NC(=O)[C@H](Cc1ccc(OP(=O)(O)O)cc1)NC(=O)[C@H](CC(N)=O)NC(=O)[C@H](CC(C)C)NC(C)=O)C(=O)N[C@@H](CC(=O)O)C(=O)N[C@@H](CC(C)C)C(=O)N[C@@H](CC(=O)O)C(=O)N[C@@H](Cc1c[nH]c2ccccc12)C(N)=O [P8W5, LN-pY -IDLDW]
dephosphorylation by SHP2Δ104 (SHP2Δ104): dephosphorylation was indeed observed

degradation in human serum [2]: totally degraded
Compound: CC[C@H](C)[C@H](NC(=O)[C@H](C)NC(=O)[C@H](CCCCN)NC(=O)CNC(=O)[C@H](Cc1ccc(O)cc1)NC(=O)[C@H](Cc1ccc(O)cc1)NC(=O)[C@H](CCCCN)NC(=O)[C@H](Cc1ccccc1)NC(=O)[C@@H](N)Cc1c[nH]c2ccccc12)C(=O)N[C@@H](Cc1ccc(O)cc1)C(=O)O [XP] (H-WFKYYGKAIY-OH)

affinity, times lower than the phosphorylated peptide (N-SH2 domain of SHP2 [3]; CF-P9Y0 vs CF-P9): approximately 100 times | standard free energy of binding (N-SH2 domain of SHP2 [3]): -7.07 ± 0.048 kcal/mol | Kd (N-SH2 domain of SHP2 [3]): 6.6 ± 0.6 µM
Compound: CC[C@H](C)[C@H](NC(=O)[C@H](Cc1ccc(O)cc1)NC(=O)[C@H](CC(N)=O)NC(=O)[C@H](CC(C)C)NC(=O)CNC(=O)c1ccc2c(c1)C(=O)OC21c2ccc(O)cc2Oc2cc(O)ccc21)C(=O)N[C@@H](CC(=O)O)C(=O)N[C@@H](CC(C)C)C(=O)N[C@@H](CC(=O)O)C(=O)N[C@@H](CC(C)C)C(N)=O [CF-P9Y0, CF-GLN- Y -IDLDL] (5FAM-GLNYIDLDL-NH2)

Compound: SLN-pY-IDLDLVKD [IRS-1 pY1172]
Kd (N-SH2 domain [4]): 1 to 10 µM | Kd (N-SH2 domain [5]): 0.051 µM

Compound: N-pY -IDLDL [P7]
effect of shortening the sequence on affinity (displacement curves) (N-SH2 domain of SHP2 [6]): drastic perturbation of the complex stability

Compound: CC[C@H](C)[C@H](NC(=O)[C@H](Cc1ccc(OP(=O)(O)O)cc1)NC(=O)[C@H](CC(N)=O)NC(=O)[C@H](CC(C)C)NC(C)=O)C(=O)N[C@@H](CC(=O)O)C(=O)N[C@@H](CC(C)C)C(=O)N[C@@H](CC(=O)O)C(=O)N[C@@H](CC(C)C)C(N)=O [P8, LN-pY -IDLDL] (Ac-LN[pY]IDLDL-NH2)
dephosphorylation by SHP2Δ104 (SHP2Δ104): dephosphorylation was indeed observed | effect of shortening the sequence on affinity (displacement curves) (N-SH2 domain of SHP2 [6]): No significant loss of affinity

Compound: CC[C@H](C)[C@H](NC(=O)[C@H](Cc1ccc(OP(=O)(O)O)cc1)NC(=O)[C@H](CC(N)=O)NC(=O)[C@H](CC(C)C)NC(=O)CNC(=O)c1ccc2c(c1)C(=O)OC21c2ccc(O)cc2Oc2cc(O)ccc21)C(=O)N[C@@H](CC(=O)O)C(=O)N[C@@H](CC(C)C)C(=O)N[C@@H](CC(=O)O)C(=O)N[C@@H](CC(C)C)C(N)=O [CF-P9, CF-GLN-pY -IDLDL] (5FAM-GLN[pY]IDLDL-NH2)
standard free energy of binding (N-SH2 domain of SHP2 [3]): -9.94 ± 0.024 kcal/mol | Kd (N-SH2 domain of SHP2 [3]): 0.053 ± 0.002 µM
